Laboratory results taken from US20260224555A1, “NEW PHENYLQUINOLONE COMPOUND HAVING ANTIBACTERIAL AND ANTI-CANCER FUNCTIONS AND PREPARATION THEREOF” (AlphaMol Science Ltd (Shanghai), priority 2022, published 2026).
pIC50: −log10 of the molar value. In brackets after ≈: the same amount, converted by molar mass. Read-outs that look alike come from different tables or passages of the source.

Tests used:
[1] = test system: E. feacium ATCC 700221; test: In vitro antibacterial activity assay (MIC, broth dilution); format: cell-based; conditions: read-out: G+ bacteria MIC E. feacium ATCC 700221
Description: (§1) The method used to indicate the activity of the compounds in this example is to record the minimum inhibitory concentration (MIC) of the compounds against bacteria. The specific experimental method is as follows:
(§2) 1. The bacterial liquid cultured from a single colony was taken, and diluted into autoclaved CAMHB broth in a ratio of 1:1000, and mixed well.
(§3) 2. The prepared drug solution was filtered through a sterile 0.22 µm syringe filter and placed in a sterile EP tube for later use.
(§4) 3. A 96-well plate was taken, and 20 µL of drug solution ([…]) was added to each well in the first column of the 96-well plate. Then, 180 µL of diluted bacterial liquid was added and mixed well (Perform 3 replicate rows for each drug).
(§5) The same process was performed for the hydrochloride drug.
(§6) 4. 100 μL of diluted bacterial liquid was added to each well in the remaining 11 columns of the 96-well plate. Drugs are the same as above.
(§7) 5. Serial dilution: 100 μL of liquid was taken from the first column to the second column, mixed well, then 100 μL of liquid was taken from the second column to the third column, mixed well, and so on, sequentially diluting down to the last column (column 12). After mixing column 12 well, 100 μL of liquid thereof was discarded. The drug concentration in each well was decreased by two-fold serially (the concentration in the first well is 40 μg/mL).
(§8) 6. Blank CAMHB broth without added bacteria liquid was added to 3 blank wells in the 96-well plate, as negative control.
(§9) 7. The diluted bacterial liquid was added to 3 blank wells in the 96-well plate, as positive control.
(§10) 8. Incubated at 37° C. for 16 hours.
(§11) 9. Results reading: the minimum inhibitory concentration is the minimum drug concentration at which no bacterial growth is visible to the naked eye and without turbidity.

[2] = test system: S. aureus ATCC 43300; test: as above; format: cell-based; conditions: Staphylococcus aureus, ATCC43300
Description: as §1, §2, §3, §4, §5, §6, §7, §8, §9, §10, §11

[3] = test system: E. coli ATCC 25922; test: as above; format: cell-based; conditions: Escherichia coli, ATCC25922
Description: as §1, §2, §3, §4, §5, §6, §7, §8, §9, §10, §11

[4] = test system: Staphylococcus aureus ATCC43300; test: Resistance test of bacteria against compounds (serial induction, 21 days); format: cell-based
Procedure: This example provides a resistance test of bacteria against compounds, and the specific experimental method is as follows.
1. […] It was ensured that among the 6 final concentrations of the drug diluted into the wells, some were higher than the original MIC of the bacteria and some were lower than the original MIC of the bacteria.
2. Preparation of bacterial liquid: 10 mL of culture medium was taken and added to a sterilized plate using a pipette, then 100 µL of the above-mentioned passaged bacterial liquid was added, and mixed well for later use.
3. The above-mentioned diluted bacterial liquid was taken and added to a 96-well plate using a pipette, 180 μL per well, 3 wells per group, 6 groups in total. 20 μL of drug solution was added to each well (note: it is necessary to replace the pipette tip each time the drug is added), so that the final drug concentrations were […], respectively. The well with 200 μL of diluted bacterial liquid was used as the positive control well, and the well with 200 μL of culture medium was used as the negative control well.
The test object was Staphylococcus aureus (S. aureus).

[5] = test system: Hela; test: In vitro anticancer activity test (MTT cell proliferation); format: cell-based; conditions: Homo sapiens, average proliferation inhibition rate at the dosage of 40 μM, read-out: Hela Average inhibition rate %
Procedure: (§12) The anticancer activity of the compounds was tested using an in vitro cancer cell tests. The specific test method is as follows:
(§13) 1. Cell recovery and culture method: the cryovial was taken out from the liquid nitrogen container firstly, soaked directly in 37° C. warm water, and shaked from time to time to let it thaw as soon as possible. Then, the cryovial was transferred to a clean bench, and the lid was open. The cell suspension was taken into a centrifuge tube using a rubber-tipped dropper and more than 10 times the culture medium was added, mixed well, and centrifuged at 50 g for 5 minutes. Then, the supernatant was discarded, complete culture medium containing 10% fetal bovine serum was added to resuspend the cells, the cells was counted, the cell density was adjusted, and then inoculated into a culture bottle. The culture bottle was placed in a cell culture incubator at 5% CO2 and 37° C. The complete culture medium was replaced once the next day and the culture was continued.
(§14) 2. Cell passaging method: adherent cells in the logarithmic growth phase were placed in a clean bench, the original culture medium was discarded, and washed three times with 1×PBS. An appropriate amount of 0.25% trypsin digestion solution was added to moisten the cells, and then the trypsin solution was aspirated. The cells were placed in a cell culture incubator at 5% CO2 and 37° C. for digestion for a suitable time, and observed under a microscope. When 90% of the cells become round, the cells were moved immediately to the clean bench and complete culture medium was added to terminate digestion. Then, the cells were dislodged by pipetting up and down with a rubber-tipped dropper to single cells. The cells were counted, and the cell density was adjusted. The cells were inoculated into a suitable culture bottle or dish, added enough complete culture medium, and placed in a cell culture incubator at 5% CO2 and 37° C. for static culture.
(§15) For suspension cells in the logarithmic phase, the original culture medium was directly centrifuged at 50 g for 5 minutes, the supernatant was discarded, and the cells were washed once with PBS and centrifuged. After discarding the supernatant, the complete culture medium was added and the cells were dispersed using a rubber-tipped dropper. The cells are counted, and the cell density was adjusted. The cells were inoculated into appropriate culture bottles or culture dishes, and sufficient complete culture medium was added, and the cells were cultured in a cell culture incubator at 5% CO2 and 37° C.
(§16) 3. Cell proliferation assay: cells in good state in logarithmic phase were taken and appropriate amount of the cells was inoculated into 96-well plates according to the cell passage treatment method, with each well containing 180 μL complete medium. After the cells growth was recovered and the number of cells in each well is 5000±500, a drug was added for treatment.
(§17) After drug treatment during the experimental time, MTT solution with a final concentration of 0.5 mg/mL was added to each well, and placed in a cell culture incubator at 5% CO2 and 37° C. to allow a fully reaction of MTT with cells. After 4 hours, the solution in the 96-well plate was discarded, 100 µL of DMSO was added, and shaked to dissolve the formazan precipitated at the bottom of the plate, and the absorbance value of samples was detected at a wavelength of 570 nm using a microplate reader. Calculation method of cell viability rate:
Table 4 lists some compounds that have inhibitory effects against both of bacteria and cancer cells. In the table, the inhibitory effects against cancer cells are shown: the average proliferation inhibition rate (%) against cancer cells at the dosage of 40 μM.

[6] = test system: Staphylococcus aureus ATCC43300; test: Systemic blood infection animal model; format: in vivo, mice; conditions: for number of colonies of liver and kidney: 3 times a day, 7 days
Procedure: (2) Sterile phosphate buffered saline (PBS) was used to prepare a 1×10^7 CFU/mL Staphylococcus aureus ATCC43300 bacterial suspension for later use; the drug dosage required for mice was calculated for each group, and solutions of Example 34 and solvent for gavage (400 or 200 μL of Tween 80 was mixed with Example 34, grinded with an agate mortar until it became transparent, and then 0.5% sodium carboxymethyl cellulose solution was added to reach the required concentration and volume of the test drug) were prepared for later use.
(3) Except for the blank group, 100 μL of the bacterial suspension prepared in step 2 was injected into the tail vein of each mouse.
(4) 2 hours after the challenge, the drugs prepared in step 2 were administered by oral gavage according to the groups, 3 times a day, 200 uL each time, with an interval of 8 hours, for a total of 7 days. Mice were administered by oral gavage with the drug solvent for the model group and the blank group.
(5) 8 h after the last administration, mice were euthanized by cervical dislocation, disinfected with 75% alcohol, and then necropsied under sterile conditions. The kidneys and livers were harvested, observed and photographed, and the weight was recorded.
(6) The kidneys and livers were placed in a sterile glass grinder and sterile PBS in a volume ten times the weight of the organs was added and grinded. The grinding solutions were taken out, 10-fold serially diluted, smeared to a TSA solid culture medium, and incubated at 37° C. for 16 hours, then the colonies were counted. The number of colonies of the organs was calculated to evaluate the therapeutic effect.

[7] = test system: human acute monocytic leukemia cell THP-1; test: In vitro anticancer activity test (MTT cell proliferation); format: cell-based
Procedure: as §12, §13, §14, §15, §16
as §17, with “rate: […]” for “rate:”

[8] = test system: human acute myeloid leukemia cell MOLM-13; test: as above; format: cell-based
Procedure: as §12, §13, §14, §15, §16
as §17, with “rate: […]” for “rate:”

[9] = test system: human liver cancer cell BLE-7402; test: as above; format: cell-based
Procedure: as §12, §13, §14, §15, §16
as §17, with “rate: […]” for “rate:”

[10] = test system: human renal cancer cell OS-RC-2; test: as above; format: cell-based
Procedure: as §12, §13, §14, §15, §16
as §17, with “rate: […]” for “rate:”

[11] = test system: human bladder transitional cell carcinoma cell T24; test: as above; format: cell-based; conditions: T-24
Procedure: as §12, §13, §14, §15

[12] = test system: human epidermal carcinoma cell A431; test: as above; format: cell-based; conditions: A-431
Procedure: as §12, §13, §14, §15

[13] = test system: A. baumannii ATCC 17978; test: In vitro antibacterial activity assay (MIC, broth dilution); format: cell-based; conditions: Acinetobacter baumannii, ATCC17978; Table 2; read-out: G- bacteria MIC A. baumannii ATCC 17978
Description: as §1, §2, §3, §4, §5, §6, §7, §8, §9, §10, §11

[14] = test system: P. aeruginosa ATCC 27853; test: as above; format: cell-based; conditions: Pseudomonas aeruginosa, ATCC27853; Table 2; read-out: G- bacteria MIC P. aeruginosa ATCC 27853
Description: as §1, §2, §3, §4, §5, §6, §7, §8, §9, §10, §11

[15] = Table 1, read-out: G+ bacteria MIC S. aureus ATCC 43300

`CCCCCNS(=O)(=O)c1ccc(-c2c(F)cc3c(=O)c(C(=O)O)cn(C4CC4)c3c2Cl)cn1` [Example 20, 8-chloro-1-cyclopropyl-6-fluoro-4-oxo-7-(6-(N-pentylaminosulfonyl)pyridine-3-yl)-1,4-dihydroquinolin-3-carboxylic acid] was tested, and the MIC ([1]; Table 1) was > 8 µg/mL and the MIC [2, 15] was ≤ 0.1 µg/mL.
In the case of `O=C(O)c1cn(C2CC2)c2cc(N3CCNCC3)c(F)cc2c1=O` [Ciprofloxacin, reference compound], the MIC ([3]; Table 4, read-out: E. coli ATCC 25922 MIC) was ≤ 1 µg/mL, the MIC ([2]; Table 4, read-out: S. aureus ATCC 43300 MIC) was ≤ 1 µg/mL and the “resistance of bacteria in the subsequent culture” value ([4]; S. aureus ATCC43300, 21 days) was “increased rapidly”. For the same compound, the MIC at the end of the resistance experiment ([4]; period of 21 days, S. aureus ATCC43300) was 128 µg/mL, the inhibition at 40 µM [5] was ≤ 10% and the “number of colonies of liver and kidney” value ([6]; 4 mg/kg oral gavage) was “not apparent”.
For `O=C(O)c1cn(C2CC2)c2c(Cl)c(-c3ccc(S(=O)(=O)NCCCC(F)(F)F)nc3)c(F)cc2c1=O` [Example 34, 8-chloro-1-cyclopropyl-6-fluoro-4-oxo-7-(6-(N-(4,4,4-trifluorobutyl)sulfamoyl)pyridin-3-yl)-1,4-dihydroquinolin-3-carboxylic acid], the “initial MIC compared with marketed drugs” value ([4]; start of resistance test, S. aureus ATCC43300) was “superior to the marketed drugs ciprofloxacin and vancomycin”, the pIC50 [7] was 5.00 to 6.00 and the pIC50 [8] was 5.00 to 6.00. For the same compound, the pIC50 [9] was 5.00 to 6.00, the pIC50 [10] was 5.00 to 6.00 and the pIC50 [11] was 5.00 to 6.00. The pIC50 [12] was 5.00 to 6.00, the “number of colonies of liver and kidney” value ([6]; 1 mg/kg oral gavage) was “significant statistical difference from the control group” and the “number of colonies of liver and kidney” value ([6]; 4 mg/kg oral gavage) was “good antibacterial effect”. For the same compound, the “antibacterial effect in the liver and kidney (number of colonies of organs)” value ([6]; compared with the positive drug ciprofloxacin) was “very significant antibacterial effect”.
In the case of `COc1c(-c2ccc(NC(=O)C(F)(F)F)c(C#N)c2)c(F)cc2c(=O)c(C(=O)O)cn(C3CC3)c12` [Example 8, 7-(3-cyano-4-(2,2,2-trifluoroacetamido)phenyl)-1-cyclopropyl-6-fluoro-8-methoxy-4-oxo-1,4-dihydroquinolin-3-carboxylic acid], the MIC [13] was 0.1 to 1 µg/mL (≈ 0.204 to 2.04 µM), the MIC ([3]; Table 2, read-out: G- bacteria MIC E. coli ATCC 25922) was ≤ 0.1 µg/mL and the MIC [1] was 1 to 8 µg/mL (≈ 2.04 to 16.3 µM). For the same compound, the MIC [14] was 0.1 to 1 µg/mL (≈ 0.204 to 2.04 µM) and the MIC [2, 15] was ≤ 0.1 µg/mL.
